Results taken from the supplement of paper PMC10307832.

Key:
Test in all cases: relative viability (nuclei count vs DMSO), 5 days (fraction); higher = more cells survive
[1] = tested on: PC-14
In short: (§1)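 The day after seeding in 1536-well plates, lung cancer cell lines were treated by pin tool with a single drug, or with a fixed anchor-drug dose together with five library-drug doses (not always all listed) in √10 steps. After 5 days, a combined fix-and-stain solution (final 0.05% Triton X-100, 1% formaldehyde, 1 ug/ml Hoechst) was added. Nuclei counted on 4× images gave relative viability as treated counts over vehicle counts, reported as the median of duplicate plates.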

[2] = tested on: LK-2
In short: as §1

[3] = tested on: NCI-H647
In short: as §1

[4] = tested on: NCI-H460
In short: as §1

[5] = tested on: NCI-H1975
In short: as §1

[6] = tested on: NCI-H1355
In short: as §1

[7] = tested on: NCI-H838
In short: as §1

[8] = tested on: NCI-H322M
In short: as §1

[9] = tested on: NCI-H1915
In short: as §1

[10] = tested on: EMC-BAC-2
In short: as §1

[11] = tested on: NCI-H2126
In short: as §1

[12] = tested on: NCI-H1437
In short: as §1

[13] = tested on: NCI-H1755
In short: as §1

[14] = tested on: NCI-H1666
In short: as §1

[15] = tested on: NCI-H2085
In short: as §1

[16] = tested on: NCI-H3122
In short: as §1

[17] = tested on: NCI-H1944
In short: as §1

[18] = tested on: RERF-LC-KJ
In short: as §1

[19] = tested on: SK-LU-1
In short: as §1

[20] = tested on: NCI-H2342
In short: as §1

[21] = tested on: SW 900
In short: as §1

[22] = tested on: LCLC-103H
In short: as §1

`Oc1nc(-c2ccc(C(F)(F)F)cc2)nc2c1CSCC2` [XAV939] + CC1(C)CCC(c2ccc(Cl)cc2)=C(CN2CCN(c3ccc(C(=O)NS(=O)(=O)c4ccc(N[C@H](CCN5CCOCC5)CSc5ccccc5)c(S(=O)(=O)C(F)(F)F)c4)cc3)CC2)C1 [Navitoclax] (partner 0.5 µM) gave a relative viability ([1]; first compound 0.08 µM) of 1.04, a relative viability ([1]; first compound 0.253 µM) of 0.906 and a relative viability ([1]; first compound 0.8 µM) of 1.03. The relative viability ([1]; first compound 2.53 µM) was 0.956, the relative viability ([2]; first compound 0.08 µM) was 1.07 and the relative viability ([2]; first compound 0.253 µM) was 0.757. For the same molecule, the relative viability ([2]; first compound 0.8 µM) was 0.928, the relative viability ([2]; first compound 2.53 µM) was 0.631 and the relative viability ([3]; first compound 0.08 µM) was 1.18. The relative viability ([3]; first compound 0.253 µM) was 0.94, the relative viability ([3]; first compound 0.8 µM) was 0.881 and the relative viability ([3]; first compound 2.53 µM) was 0.877. For the same molecule, the relative viability ([4]; first compound 0.08 µM) was 1.38, the relative viability ([4]; first compound 0.253 µM) was 1.03 and the relative viability ([4]; first compound 0.8 µM) was 1.1. It also gave a relative viability ([4]; first compound 2.53 µM) of 1.16, a relative viability ([5]; first compound 0.08 µM) of 1.08 and a relative viability ([5]; first compound 0.253 µM) of 0.784. For the same molecule, the relative viability ([5]; first compound 0.8 µM) was 1.06, the relative viability ([5]; first compound 2.53 µM) was 0.768 and the relative viability ([6]; first compound 0.08 µM) was 0.913. The relative viability ([6]; first compound 0.253 µM) was 0.825, the relative viability ([6]; first compound 0.8 µM) was 0.805 and the relative viability ([6]; first compound 2.53 µM) was 0.637. The relative viability ([7]; first compound 0.08 µM) was 1.21, the relative viability ([7]; first compound 0.253 µM) was 0.994 and the relative viability ([7]; first compound 0.8 µM) was 1.07. The relative viability ([7]; first compound 2.53 µM) was 0.868, the relative viability ([8]; first compound 0.08 µM) was 1.26 and the relative viability ([8]; first compound 0.253 µM) was 0.748. It also gave a relative viability ([8]; first compound 0.8 µM) of 1.21, a relative viability ([8]; first compound 2.53 µM) of 1.03 and a relative viability ([9]; first compound 0.08 µM) of 0.813. The relative viability ([9]; first compound 0.253 µM) was 0.793, the relative viability ([9]; first compound 0.8 µM) was 0.769 and the relative viability ([9]; first compound 2.53 µM) was 0.792. It also gave a relative viability ([10]; first compound 0.08 µM) of 1.28, a relative viability ([10]; first compound 0.253 µM) of 1.04 and a relative viability ([10]; first compound 0.8 µM) of 1.1. For the same molecule, the relative viability ([10]; first compound 2.53 µM) was 0.793, the relative viability ([11]; first compound 0.08 µM) was 0.773 and the relative viability ([11]; first compound 0.253 µM) was 0.653. The relative viability ([11]; first compound 0.8 µM) was 0.813, the relative viability ([11]; first compound 2.53 µM) was 0.739 and the relative viability ([12]; first compound 0.08 µM) was 1.14. For the same molecule, the relative viability ([12]; first compound 0.253 µM) was 0.931, the relative viability ([12]; first compound 0.8 µM) was 1.12 and the relative viability ([12]; first compound 2.53 µM) was 0.888. For the same molecule, the relative viability ([13]; first compound 0.08 µM) was 0.945, the relative viability ([13]; first compound 0.253 µM) was 0.796 and the relative viability ([13]; first compound 0.8 µM) was 0.907. For the same molecule, the relative viability ([13]; first compound 2.53 µM) was 0.853, the relative viability ([14]; first compound 0.08 µM) was 0.847 and the relative viability ([14]; first compound 0.253 µM) was 0.721. It also gave a relative viability ([14]; first compound 0.8 µM) of 0.903, a relative viability ([14]; first compound 2.53 µM) of 0.469 and a relative viability ([15]; first compound 0.08 µM) of 1.1. It also gave a relative viability ([15]; first compound 0.253 µM) of 1.1, a relative viability ([15]; first compound 0.8 µM) of 1.13 and a relative viability ([15]; first compound 2.53 µM) of 0.882. For the same molecule, the relative viability ([16]; first compound 0.08 µM) was 1.03, the relative viability ([16]; first compound 0.253 µM) was 1.04 and the relative viability ([16]; first compound 0.8 µM) was 1.04. For the same molecule, the relative viability ([16]; first compound 2.53 µM) was 0.886, the relative viability ([17]; first compound 0.08 µM) was 1.07 and the relative viability ([17]; first compound 0.253 µM) was 0.986. The relative viability ([17]; first compound 0.8 µM) was 1.01, the relative viability ([17]; first compound 2.53 µM) was 1.1 and the relative viability ([18]; first compound 0.08 µM) was 0.905. The relative viability ([18]; first compound 0.253 µM) was 0.999, the relative viability ([18]; first compound 0.8 µM) was 0.804 and the relative viability ([18]; first compound 2.53 µM) was 0.452. It also gave a relative viability ([19]; first compound 0.08 µM) of 0.674, a relative viability ([19]; first compound 0.253 µM) of 0.9 and a relative viability ([19]; first compound 0.8 µM) of 0.714. For the same molecule, the relative viability ([19]; first compound 2.53 µM) was 0.791.
For `Oc1nc(-c2ccc(C(F)(F)F)cc2)nc2c1CSCC2` [XAV939] + Cc1nc(Nc2ncc(C(=O)Nc3c(C)cccc3Cl)s2)cc(N2CCN(CCO)CC2)n1 [Dasatinib] (partner 0.075 µM), the relative viability ([20]; first compound 0.08 µM) was 0.309, the relative viability ([20]; first compound 0.253 µM) was 0.285 and the relative viability ([20]; first compound 0.8 µM) was 0.326. The relative viability ([20]; first compound 2.53 µM) was 0.254, the relative viability ([1]; first compound 0.08 µM) was 0.288 and the relative viability ([1]; first compound 0.253 µM) was 0.252. For the same molecule, the relative viability ([1]; first compound 0.8 µM) was 0.204, the relative viability ([1]; first compound 2.53 µM) was 0.148 and the relative viability ([2]; first compound 0.08 µM) was 0.262. For the same molecule, the relative viability ([2]; first compound 0.253 µM) was 0.31, the relative viability ([2]; first compound 0.8 µM) was 0.27 and the relative viability ([2]; first compound 2.53 µM) was 0.399. For the same molecule, the relative viability ([3]; first compound 0.08 µM) was 0.164, the relative viability ([3]; first compound 0.253 µM) was 0.207 and the relative viability ([3]; first compound 0.8 µM) was 0.201. It also gave a relative viability ([3]; first compound 2.53 µM) of 0.147, a relative viability ([4]; first compound 0.08 µM) of 0.479 and a relative viability ([4]; first compound 0.253 µM) of 0.533. It also gave a relative viability ([4]; first compound 0.8 µM) of 0.482, a relative viability ([4]; first compound 2.53 µM) of 0.467 and a relative viability ([5]; first compound 0.08 µM) of 0.305. The relative viability ([5]; first compound 0.253 µM) was 0.264, the relative viability ([5]; first compound 0.8 µM) was 0.286 and the relative viability ([5]; first compound 2.53 µM) was 0.234. The relative viability ([6]; first compound 0.08 µM) was 0.569, the relative viability ([6]; first compound 0.253 µM) was 0.495 and the relative viability ([6]; first compound 0.8 µM) was 0.507. For the same molecule, the relative viability ([6]; first compound 2.53 µM) was 0.356, the relative viability ([7]; first compound 0.08 µM) was 0.217 and the relative viability ([7]; first compound 0.253 µM) was 0.256. For the same molecule, the relative viability ([7]; first compound 0.8 µM) was 0.284, the relative viability ([7]; first compound 2.53 µM) was 0.212 and the relative viability ([8]; first compound 0.08 µM) was 0.241. The relative viability ([8]; first compound 0.253 µM) was 0.254, the relative viability ([8]; first compound 0.8 µM) was 0.227 and the relative viability ([8]; first compound 2.53 µM) was 0.22. For the same molecule, the relative viability ([9]; first compound 0.08 µM) was 0.353, the relative viability ([9]; first compound 0.253 µM) was 0.214 and the relative viability ([9]; first compound 0.8 µM) was 0.311. For the same molecule, the relative viability ([9]; first compound 2.53 µM) was 0.298, the relative viability ([10]; first compound 0.08 µM) was 0.321 and the relative viability ([10]; first compound 0.253 µM) was 0.278. It also gave a relative viability ([10]; first compound 0.8 µM) of 0.282, a relative viability ([10]; first compound 2.53 µM) of 0.23 and a relative viability ([11]; first compound 0.08 µM) of 0.544. For the same molecule, the relative viability ([11]; first compound 0.253 µM) was 0.403, the relative viability ([11]; first compound 0.8 µM) was 0.405 and the relative viability ([11]; first compound 2.53 µM) was 0.33. The relative viability ([12]; first compound 0.08 µM) was 0.353, the relative viability ([12]; first compound 0.253 µM) was 0.488 and the relative viability ([12]; first compound 0.8 µM) was 0.416. The relative viability ([12]; first compound 2.53 µM) was 0.654, the relative viability ([21]; first compound 0.08 µM) was 0.545 and the relative viability ([21]; first compound 0.253 µM) was 0.463. It also gave a relative viability ([21]; first compound 0.8 µM) of 0.51, a relative viability ([21]; first compound 2.53 µM) of 0.435 and a relative viability ([13]; first compound 0.08 µM) of 0.484. It also gave a relative viability ([13]; first compound 0.253 µM) of 0.324, a relative viability ([13]; first compound 0.8 µM) of 0.424 and a relative viability ([13]; first compound 2.53 µM) of 0.413. It also gave a relative viability ([14]; first compound 0.08 µM) of 0.921, a relative viability ([14]; first compound 0.253 µM) of 0.801 and a relative viability ([14]; first compound 0.8 µM) of 0.761. For the same molecule, the relative viability ([14]; first compound 2.53 µM) was 0.744, the relative viability ([22]; first compound 0.08 µM) was 0.633 and the relative viability ([22]; first compound 0.253 µM) was 0.553. It also gave a relative viability ([22]; first compound 0.8 µM) of 0.55, a relative viability ([22]; first compound 2.53 µM) of 0.456 and a relative viability ([15]; first compound 0.08 µM) of 0.288. The relative viability ([15]; first compound 0.253 µM) was 0.196, the relative viability ([15]; first compound 0.8 µM) was 0.285 and the relative viability ([15]; first compound 2.53 µM) was 0.204. It also gave a relative viability ([16]; first compound 0.08 µM) of 0.877, a relative viability ([16]; first compound 0.253 µM) of 0.786 and a relative viability ([16]; first compound 0.8 µM) of 0.789. The relative viability ([16]; first compound 2.53 µM) was 0.181, the relative viability ([17]; first compound 0.08 µM) was 0.239 and the relative viability ([17]; first compound 0.253 µM) was 0.248. The relative viability ([17]; first compound 0.8 µM) was 0.226, the relative viability ([17]; first compound 2.53 µM) was 0.218 and the relative viability ([18]; first compound 0.08 µM) was 0.77. The relative viability ([18]; first compound 0.253 µM) was 0.643, the relative viability ([18]; first compound 0.8 µM) was 0.55 and the relative viability ([18]; first compound 2.53 µM) was 0.46. For the same molecule, the relative viability ([19]; first compound 0.08 µM) was 0.166, the relative viability ([19]; first compound 0.253 µM) was 0.147 and the relative viability ([19]; first compound 0.8 µM) was 0.211. For the same molecule, the relative viability ([19]; first compound 2.53 µM) was 0.188.
